Source: US20080194585A1, “Fungicidal Pyrazine Derivatives” (priority 2005, published 2008)
Marks after values point to notes of the source that are not given here.

What was measured:
[1] = system: Botrytis cinerea; test: Test E: tomato botrytis, preventive spray on tomato seedlings
[2] = system: Plasmopara viticola; test: Test D: grape downy mildew, spray after inoculation of grape seedlings; assay type: in vivo
From the text: Upon removal, disease ratings were made. […] A dash (-) indicates no test results.

[3] = system: Colletotrichum orbiculare; test: Test B: cucumber Colletotrichum anthracnose, preventive spray on cucumber seedlings
[4] = system: Septoria nodorum; test: Test H: wheat glum blotch, preventive spray on wheat seedlings
Protocol: (the causal agent of wheat glum blotch) and incubated in a saturated atmosphere at 20° C. for 48 h, and then moved to a growth chamber at 22° C. for 5 days, after which disease ratings were made.

[5] = system: Rhizoctonia oryzae; test: Test G: turf brown patch, preventive spray on creeping bent grass seedlings
Protocol: (the causal agent of turf brown patch) and incubated in a saturated atmosphere at 27° C. for 24 h, and then moved to a growth chamber at 27° C. for 5 days, after which disease ratings were made.

[6] = system: Sclerotinia sclerotiorum; test: Test C: cucumber white mold, preventive spray on cucumber seedlings
[7] = system: Erysiphe graminis f. sp. tritici; test: Test L: wheat powdery mildew, preventive spray on wheat seedlings
[8] = system: Phytophthora infestans; test: whole plant or invertebrate; assay type: in vivo
[9] = system: Puccinia recondita f. sp. tritici; test: Test K: wheat leaf rust, preventive spray on wheat seedlings
[10] = system: Septoria tritici; test: Test J: wheat leaf blotch, preventive spray on wheat seedlings; assay type: in vivo
From the text: A dash (-) indicates no test results.

[11] = system: Pythium aphanidermatum; test: Test A: bluegrass pythium blight, preventive spray on bluegrass seedlings

Structure (SMILES) | Test E disease control rating ([1]; 200 ppm) [%] | Test D disease control rating ([2]; 200 ppm) [%] | Test B disease control rating ([3]; 200 ppm) [%] | Test H disease control rating ([4]; 200 ppm) [%] | Test G disease control rating ([5]; 200 ppm) [%] | Test C disease control rating ([6]; 200 ppm) [%] | Test L disease control rating ([7]; 200 ppm) [%] | Test F disease control rating ([8]; 200 ppm) [%] | Test K disease control rating ([9]; 200 ppm) [%] | Test J disease control rating ([10]; 200 ppm) [%] | Test A disease control rating ([11]; 200 ppm) [%] | further results
CC(C)Cn1c(-c2c(F)cccc2F)c(Cl)nc(-c2ccncc2)c1=O [compound 84] | – | – | – | – | – | – | – | – | – | – | – | Test E disease control rating ([1]; 40 ppm (*)): 0* %; Test D disease control rating ([2]; 40 ppm (*)): 5* %; Test B disease control rating ([3]; 40 ppm (*)): 0* %; Test H disease control rating ([4]; 40 ppm (*)): 0* %; Test G disease control rating ([5]; 40 ppm (*)): 0* %; Test C disease control rating ([6]; 40 ppm (*)): 0* %; Test L disease control rating ([7]; 40 ppm (*)): 0* %; Test F disease control rating ([8]; 40 ppm (*)): 0* %; Test K disease control rating ([9]; 40 ppm (*)): 0* %; Test J disease control rating ([10]; 40 ppm (*)): 20* %; Test A disease control rating ([11]; 40 ppm (*)): 0* %
COCCn1c(-c2c(F)cccc2F)c(Cl)nc(-n2cccn2)c1=O [compound 95] | 99 | 92 | 0 | 100 | 68 | 0 | 0 | 0 | 94 | 95 | 0 | –
CC(C)Cn1c(-c2c(F)cccc2F)c(Cl)nc(-c2nccs2)c1=O [compound 101] | – | 15 | – | – | – | 0 | – | 0 | – | – | 0 | Test E disease control rating ([1]; 40 ppm (*)): 0* %; Test B disease control rating ([3]; 40 ppm (*)): 0* %; Test H disease control rating ([4]; 40 ppm (*)): 0* %; Test G disease control rating ([5]; 40 ppm (*)): 0* %; Test L disease control rating ([7]; 40 ppm (*)): 0* %; Test K disease control rating ([9]; 40 ppm (*)): 0* %; Test J disease control rating ([10]; 40 ppm (*)): 53* %
CC(C)Cn1c(-c2cc(F)cc(F)c2F)c(Cl)nc(-n2cncn2)c1=O [compound 138] | – | – | – | – | – | – | – | – | – | – | – | Test E disease control rating ([1]; 100 ppm (#)): 83# %; Test D disease control rating ([2]; 100 ppm (#)): 12# %; Test B disease control rating ([3]; 100 ppm (#)): 0# %; Test H disease control rating ([4]; 100 ppm (#)): 0# %; Test G disease control rating ([5]; 100 ppm (#)): 55# %; Test C disease control rating ([6]; 100 ppm (#)): 24# %; Test L disease control rating ([7]; 100 ppm (#)): 0# %; Test F disease control rating ([8]; 100 ppm (#)): 0# %; Test K disease control rating ([9]; 100 ppm (#)): 0# %; Test J disease control rating ([10]; 100 ppm (#)): 46# %; Test A disease control rating ([11]; 100 ppm (#)): 0# %
CC(C)Cn1c(-c2ccccc2C(F)(F)F)c(Cl)nc(-n2cncn2)c1=O [compound 140] | 99 | 12 | 0 | 0 | 34 | 83 | 0 | 0 | 0 | 41 | 0 | –
CC(C)Cn1c(-c2ccccc2C(F)(F)F)c(Cl)nc(-n2cccn2)c1=O [compound 141] | 92 | 12 | 96 | 73 | 96 | 63 | 79 | 0 | 60 | 99 | 0 | –
CC(C)Cn1c(-c2ccc(F)cc2)c(Cl)nc(-n2cncn2)c1=O [compound 142] | 100 | 4 | 16 | 100 | 0 | 0 | 81 | 0 | 27 | 100 | 64 | –
CC(C)Cn1c(-c2ccc(F)cc2)c(Cl)nc(-n2cccn2)c1=O [compound 143] | 99 | 12 | 0 | 0 | 47 | 0 | 0 | 0 | 68 | 100 | 0 | –
CC(C)Cn1c(-c2ccc(C#N)cc2)c(Cl)nc(-n2cncn2)c1=O [compound 144] | 0 | 12 | 0 | 0 | 0 | 0 | 0 | 0 | 0 | 89 | 0 | –
CC(C)Cn1c(-c2ccc(C#N)cc2)c(Cl)nc(-n2cccn2)c1=O [compound 145] | 99 | 20 | 0 | 0 | 40 | 49 | 0 | 0 | 68 | 100 | 0 | –
O=c1c(-n2cncn2)nc(Cl)c(-c2c(F)cccc2F)n1-c1ccccc1 [compound 162] | 85 | 8 | 9 | 0 | 47 | 0 | 0 | 0 | 27 | 100 | 0 | –
CCC(C)Cn1c(-c2ccc(F)cc2Cl)c(Cl)nc(-n2cccn2)c1=O (stereo not shown) [compound 164] | 100 | 44 | 100 | 100 | 74 | 91 | 100 | 0 | 100 | 100 | 0 | –
CC(C)Cn1c(-c2ccccc2F)c(Cl)nc(-n2cccn2)c1=O [compound 174] | – | – | – | – | – | – | – | – | – | – | – | Test E disease control rating ([1]; 40 ppm (*)): 100* %; Test D disease control rating ([2]; 40 ppm (*)): 15* %; Test B disease control rating ([3]; 40 ppm (*)): 0* %; Test H disease control rating ([4]; 40 ppm (*)): 99* %; Test G disease control rating ([5]; 40 ppm (*)): 62* %; Test C disease control rating ([6]; 40 ppm (*)): 0* %; Test L disease control rating ([7]; 40 ppm (*)): 98* %; Test F disease control rating ([8]; 40 ppm (*)): 0* %; Test K disease control rating ([9]; 40 ppm (*)): 99* %; Test J disease control rating ([10]; 40 ppm (*)): 100* %; Test A disease control rating ([11]; 40 ppm (*)): 0* %
CC(C)Cn1c(-c2ccccc2F)c(Cl)nc(-n2cncn2)c1=O [compound 175] | 99 | 12 | 0 | 99 | 91 | 0 | 92 | 0 | 60 | 98 | 0 | –
